Results from PubChem BioAssay (NCI).
Several values for one entry are separate records, joined by “and”; a condition that tells them apart may be missing. Equal entries are not always repeated.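 Compound exposure: 48 hours, 5 concentrations, 96-well plates. The concentration for 50% growth inhibition is given as GI50. TGI marks complete inhibition of growth.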

What was measured:
Test in all cases: inhibition of tumour cell growth, NCI panel, 48 h
[1] = tested on: SNB-19 CNS
[2] = tested on: CAKI-1 renal
[3] = tested on: UO-31 renal
[4] = tested on: MDA-MB-231 breast
[5] = tested on: NCI/ADR-RES ovarian
[6] = tested on: LOX IMVI melanoma
[7] = tested on: SF-295 CNS
[8] = tested on: KM12 colon
[9] = tested on: UACC-257 melanoma
[10] = tested on: NCI-H460 lung
[11] = tested on: MOLT-4 leukemia
[12] = tested on: MALME-3M melanoma
[13] = tested on: RPMI-8226 leukemia
[14] = tested on: HCT-116 colon
[15] = tested on: MDA-MB-435
[16] = tested on: IGROV1 ovarian
[17] = tested on: ACHN renal
[18] = tested on: NCI-H226 lung
[19] = tested on: OVCAR-5 ovarian
[20] = tested on: HCT-15 colon
[21] = tested on: TK-10 renal
[22] = tested on: M14 melanoma
[23] = tested on: SNB-75 CNS
[24] = tested on: T-47D breast
[25] = tested on: A498 renal
[26] = tested on: SW-620 colon
[27] = tested on: OVCAR-8 ovarian
[28] = tested on: EKVX NSCLC
[29] = tested on: NCI-H23 lung
[30] = tested on: SK-MEL-28 melanoma
[31] = tested on: HOP-92 NSCLC
[32] = tested on: U251 CNS
[33] = tested on: HL-60(TB) leukemia
[34] = tested on: SN12C renal
[35] = tested on: SK-MEL-5 melanoma
[36] = tested on: BT-549 breast
[37] = tested on: UACC-62 melanoma
[38] = tested on: SF-539 CNS
[39] = tested on: RXF 393 renal
[40] = tested on: HCC-2998 colon
[41] = tested on: 786-0 renal
[42] = tested on: OVCAR-4 ovarian
[43] = tested on: OVCAR-3 ovarian
[44] = tested on: HS 578T breast
[45] = tested on: SK-OV-3 ovarian
[46] = tested on: HOP-62 NSCLC
[47] = tested on: DU-145 prostate
[48] = tested on: SR leukemia
[49] = tested on: CCRF-CEM leukemia
[50] = tested on: HT29 colon
[51] = tested on: MDA-N
[52] = tested on: PC-3 prostate
[53] = tested on: COLO 205 colon
[54] = tested on: K-562 leukemia
[55] = tested on: A549 NSCLC
[56] = tested on: SF-268 CNS
[57] = tested on: MCF7 breast
[58] = tested on: NCI-H522 lung
[59] = tested on: SK-MEL-2 melanoma

Q: Which results are given for `C=CC[C@@]1(OC(C)=O)C(=O)C(=O)OC1C1COC(C)(C)O1` (stereo partly specified)?
A: TGI [1]: > 100 µM; TGI [2]: 4.42 µM; TGI [3]: 31.4 µM; TGI [4]: 30.9 µM; TGI [5]: 71.9 µM; TGI [6]: 20 µM; TGI [7]: > 100 µM; TGI [8]: 29.1 µM; TGI [9]: 31.9 µM; TGI [10]: 39.1 µM; TGI [11]: 32.6 µM; TGI [12]: 32 µM; TGI [13]: 35.5 µM; TGI [14]: 26.6 µM; TGI [15]: 30.9 µM; TGI [16]: 34 µM; TGI [17]: 30.2 µM; TGI [18]: > 100 µM; TGI [19]: 34.5 µM; TGI [20]: 29 µM; TGI [21]: 30 µM; TGI [22]: 35.1 µM; TGI [23]: 78.7 µM; TGI [24]: 37.5 µM; TGI [25]: 49 µM; TGI [26]: 26.6 µM; TGI [27]: 41.2 µM; TGI [28]: 33 µM; TGI [29]: 40.5 µM; TGI [30]: 33.5 µM; TGI [31]: 30.4 µM; TGI [32]: 31.3 µM; TGI [33]: 27.2 µM; TGI [34]: 32.5 µM; TGI [35]: 30400 nM; TGI [36]: 40 µM; TGI [37]: 32.5 µM; TGI [38]: 72.9 µM; TGI [39]: 40.1 µM; TGI [40]: 40.7 µM; TGI [41]: 24.6 µM; TGI [42]: 38.7 µM; TGI [43]: 31.5 µM; TGI [44]: > 100 µM; TGI [45]: > 100 µM; TGI [46]: > 100 µM; TGI [47]: 53.8 µM; TGI [48]: 37.9 µM; TGI [49]: 22.7 µM; TGI [50]: 36.4 µM; TGI [51]: 33.3 µM; TGI [52]: 40.2 µM; TGI [53]: 27.2 µM; TGI [54]: 32.2 µM; TGI [55]: 58.1 µM; TGI [56]: 39.4 µM; TGI [57]: 33.6 µM; TGI [58]: 19.6 µM; TGI [59]: 43.5 µM

Q: Which results are given for `Nc1ccccc1NC(=O)c1ccc(CNC(=O)OCc2cccnc2)cc1`?
A: GI50 [1]: 6.33 µM; TGI [1]: > 100 µM and 75.2 µM; GI50 [2]: 1170 nM; TGI [2]: 14.1 µM and > 59.5 µM; GI50 [3]: 1170 nM; TGI [3]: > 100 µM and 20.3 µM; GI50 [4]: 13.8 µM; TGI [4]: > 100 µM and 25.6 µM; GI50 [5]: 2380 nM; TGI [5]: > 67.4 µM; GI50 [6]: 1060 nM; TGI [6]: 8.67 µM and 5.94 µM; GI50 [7]: 2570 nM; TGI [7]: > 39.8 µM and 16.6 µM; GI50 [8]: 4.31 µM; TGI [8]: > 100 µM; TGI [9]: > 29 µM; GI50 [10]: 830 nM; TGI [10]: > 100 µM; GI50 [11]: 1930 nM; TGI [11]: > 85 µM; GI50 [12]: 577 nM and 267 nM; TGI [12]: > 23.6 µM and 2.39 µM; GI50 [13]: 895 nM; TGI [13]: > 29.5 µM and 4.54 µM; GI50 [14]: 798 nM; TGI [14]: > 92 µM and 11.6 µM; GI50 [15]: 956 nM; TGI [15]: 14.8 µM and > 33.1 µM; GI50 [16]: 3.95 µM; TGI [16]: > 61.6 µM and 36.2 µM; GI50 [17]: 2340 nM; TGI [17]: > 77.7 µM and 25.7 µM; GI50 [18]: 604 nM; TGI [18]: 16.9 µM and 5.73 µM; GI50 [19]: 1050 nM; GI50 [20]: 8.47 µM; TGI [20]: > 100 µM; GI50 [21]: 289 nM; TGI [21]: 38.8 µM and > 100 µM; GI50 [22]: 2350 nM; TGI [22]: > 100 µM and 15.5 µM; TGI [23]: > 100 µM; GI50 [24]: 462 nM; TGI [24]: > 100 µM; GI50 [25]: 361 nM; TGI [25]: 2.98 µM and 4.14 µM; GI50 [26]: 1300 nM; TGI [26]: 34.5 µM and > 100 µM; TGI [27]: > 100 µM; GI50 [28]: 3.26 µM; TGI [28]: > 100 µM; GI50 [29]: 3.23 µM; TGI [29]: > 89.4 µM and 14.9 µM; GI50 [30]: 663 nM; TGI [30]: 5.94 µM and > 45.4 µM; GI50 [31]: 38.2 nM; GI50 [32]: 2030 nM; TGI [32]: > 39.5 µM and 5.74 µM; GI50 [33]: 847 nM; TGI [33]: 26.6 µM and > 22.5 µM; GI50 [34]: 9.39 µM; TGI [34]: > 100 µM; GI50 [35]: 743 nM; TGI [35]: 2310 nM and 2300 nM; GI50 [36]: 4.14 µM; TGI [36]: > 100 µM; GI50 [37]: 278 nM; TGI [37]: 1.77 µM and 4.81 µM; GI50 [38]: 3.19 µM; TGI [38]: 78.7 µM and > 52.1 µM; GI50 [39]: 1490 nM; TGI [39]: 6.31 µM and 27.6 µM; TGI [40]: 5.44 µM and 9.79 µM; GI50 [41]: 4.96 µM; TGI [41]: > 90.9 µM; GI50 [42]: 1310 nM; TGI [42]: > 100 µM; GI50 [43]: 1740 nM; TGI [43]: 11.5 µM and 14.8 µM; GI50 [44]: 2330 nM; TGI [44]: > 100 µM; GI50 [45]: 2750 nM; TGI [45]: > 100 µM; TGI [46]: > 90 µM; GI50 [47]: 2260 nM; TGI [47]: > 100 µM; GI50 [48]: 533 nM; TGI [48]: > 100 µM; GI50 [49]: 1940 nM; TGI [49]: > 100 µM and 21.7 µM; GI50 [50]: 1040 nM; TGI [51]: 12.4 µM; TGI [52]: > 100 µM; GI50 [53]: 2010 nM; TGI [53]: 8.37 µM and 3.03 µM; GI50 [54]: 505 nM; TGI [54]: > 100 µM; TGI [55]: > 100 µM; GI50 [56]: 1860 nM; TGI [56]: 25 µM and > 74.7 µM; GI50 [57]: 637 nM; TGI [57]: > 100 µM; GI50 [58]: 698 nM; TGI [58]: 7.41 µM and > 27.9 µM; GI50 [59]: 1100 nM; TGI [59]: 15 µM and 3.2 µM
